From PubChem BioAssay AID2060619 (Molecular Pharmacology Branch, DTP, NCI, 2025)
Where “and” joins values, the source holds several entries; their conditions need not be identical. Identical values can stand only once.

Tested on: 323965-272-R-J2-PDC complex spheroid viability
Experiment: Anticancer human tumor 323965-272-R-J2-PDC patient-derived pancreatic carcinoma cell line growth inhibition [CLK]
Details: for viability, T/C: stronger effect = lower value
Outline: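 Patient-derived tumor cells grown as complex spheroids with HUVEC endothelial cells and mesenchymal stem cells, treated with drug combinations. Concentrations descend in half-log steps from near clinical Cmax, or from 10 microM if Cmax unknown.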

[1] = curve of first compound, second compound 0.0316 µM
[2] = curve of first compound, second compound 0.1 µM
[3] = curve of first compound, second compound 0.316 µM
[4] = curve of first compound, second compound 1 µM
[5] = curve of first compound, second compound 3.16 µM
[6] = curve of first compound, second compound 10 µM
[7] = second compound 0.0316 µM, first compound 0.0316 µM
[8] = second compound 0.0316 µM, first compound 0.1 µM
[9] = second compound 0.0316 µM, first compound 0.316 µM
[10] = second compound 0.0316 µM, first compound 1 µM
[11] = second compound 0.0316 µM, first compound 3.16 µM
[12] = second compound 0.0316 µM, first compound 10 µM
[13] = second compound 0.1 µM, first compound 0.0316 µM
[14] = second compound 0.1 µM, first compound 0.1 µM
[15] = second compound 0.1 µM, first compound 0.316 µM
[16] = second compound 0.1 µM, first compound 1 µM
[17] = second compound 0.1 µM, first compound 3.16 µM
[18] = second compound 0.1 µM, first compound 10 µM
[19] = second compound 0.316 µM, first compound 0.0316 µM
[20] = second compound 0.316 µM, first compound 0.1 µM
[21] = second compound 0.316 µM, first compound 0.316 µM
[22] = second compound 0.316 µM, first compound 1 µM
[23] = second compound 0.316 µM, first compound 3.16 µM
[24] = second compound 0.316 µM, first compound 10 µM
[25] = second compound 1 µM, first compound 0.0316 µM
[26] = second compound 1 µM, first compound 0.1 µM
[27] = second compound 1 µM, first compound 0.316 µM
[28] = second compound 1 µM, first compound 1 µM
[29] = second compound 1 µM, first compound 3.16 µM
[30] = second compound 1 µM, first compound 10 µM
[31] = second compound 3.16 µM, first compound 0.0316 µM
[32] = second compound 3.16 µM, first compound 0.1 µM
[33] = second compound 3.16 µM, first compound 0.316 µM
[34] = second compound 3.16 µM, first compound 1 µM
[35] = second compound 3.16 µM, first compound 3.16 µM
[36] = second compound 3.16 µM, first compound 10 µM
[37] = second compound 10 µM, first compound 0.0316 µM
[38] = second compound 10 µM, first compound 0.1 µM
[39] = second compound 10 µM, first compound 0.316 µM
[40] = second compound 10 µM, first compound 1 µM
[41] = second compound 10 µM, first compound 3.16 µM
[42] = second compound 10 µM, first compound 10 µM
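Note: spheroids exposed to agents for seven days before readout.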
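Throughout, for viability, T/C: percent of DMSO vehicle control wells so 100% = untreated growth.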

COc1c(OCCCN2CCOCC2)ccc2c3n(c(=NC(=O)c4cnc(N)nc4)nc12)CCN3
viability, T/C (compound 0.00316 µM): 98.5% and 103% | viability, T/C (compound 0.01 µM): 80.8% and 72.1% | viability, T/C (compound 0.0316 µM): 62% and 54.2% | viability, T/C (compound 0.1 µM): 46.6% and 45.2% | viability, T/C (compound 0.316 µM): 38.4% and 31% | viability, T/C (compound 1 µM): 27.7% and 21.9% | IC50 (curve of compound): 83.6 nM and 48.1 nM

COc1ccc([C@@H](O)c2cc(-c3ncnc4cc(N5CCOCC5)ccc34)c(F)cc2Cl)nn1
viability, T/C (compound 0.0316 µM): 105% and 109% | viability, T/C (compound 0.1 µM): 116% and 106% | viability, T/C (compound 0.316 µM): 110% and 95.9% | viability, T/C (compound 1 µM): 92.8% and 92.9% | viability, T/C (compound 3.16 µM): 79.5% and 68.8% | viability, T/C (compound 10 µM): 50.6% and 50.3% | IC50 (curve of compound): > 10000 nM and 9920 nM

CC1COCCN1c1cc(C2(S(C)(=N)=O)CC2)nc(-c2ccnc3[nH]ccc23)n1 (configuration not stated) + CN1CCN(c2cc(C(=O)Nc3cc4cc(-c5cnn(C)c5)ccc4cn3)ccn2)CC1
IC50 [1]: 1820 nM | IC50 [2]: 701 nM | IC50 [3]: < 31.6 nM | IC50 [4]: < 31.6 nM | IC50 [5]: < 31.6 nM | IC50 [6]: < 31.6 nM | viability, T/C [7]: 98.2% | viability, T/C [8]: 103% | viability, T/C [9]: 79.5% | viability, T/C [10]: 65.8% | viability, T/C [11]: 36.7% | viability, T/C [12]: 25.6% | viability, T/C [13]: 66.9% | viability, T/C [14]: 77.2% | viability, T/C [15]: 67% | viability, T/C [16]: 41.8% | viability, T/C [17]: 31% | viability, T/C [18]: 23.6% | viability, T/C [19]: 24.6% | viability, T/C [20]: 29.2% | viability, T/C [21]: 22.1% | viability, T/C [22]: 21.4% | viability, T/C [23]: 17.4% | viability, T/C [24]: 15.1% | viability, T/C [25]: 3.95% | viability, T/C [26]: 3.37% | viability, T/C [27]: 3.9% | viability, T/C [28]: 3.84% | viability, T/C [29]: 2.35% | viability, T/C [30]: 2.79% | viability, T/C [31]: 4.84% | viability, T/C [32]: 4.43% | viability, T/C [33]: 4.15% | viability, T/C [34]: 3.73% | viability, T/C [35]: 3.53% | viability, T/C [36]: 4.26% | viability, T/C [37]: 4.2% | viability, T/C [38]: 3.8% | viability, T/C [39]: 4.37% | viability, T/C [40]: 3.26% | viability, T/C [41]: 4.39% | viability, T/C [42]: 2.79%

Nc1ccn(C2OC(CO)C(O)C2(F)F)c(=O)n1 (configuration not stated) + CNC(=O)c1ccc(Nc2nc(OC3CCCC3)c3c(-c4ccc5nc(C)oc5c4)c[nH]c3n2)c(OC)c1
IC50 [1]: < 31.6 nM | IC50 [2]: < 31.6 nM | IC50 [3]: < 31.6 nM | IC50 [4]: < 31.6 nM | IC50 [5]: < 31.6 nM | IC50 [6]: < 31.6 nM | viability, T/C [7]: 30.7% | viability, T/C [8]: 33% | viability, T/C [9]: 30.3% | viability, T/C [10]: 27.9% | viability, T/C [11]: 27.9% | viability, T/C [12]: 30.4% | viability, T/C [13]: 37.4% | viability, T/C [14]: 33.3% | viability, T/C [15]: 26% | viability, T/C [16]: 32.3% | viability, T/C [17]: 30.2% | viability, T/C [18]: 32.1% | viability, T/C [19]: 32.9% | viability, T/C [20]: 27.8% | viability, T/C [21]: 25.4% | viability, T/C [22]: 27.8% | viability, T/C [23]: 28.1% | viability, T/C [24]: 25.2% | viability, T/C [25]: 24.2% | viability, T/C [26]: 21.4% | viability, T/C [27]: 21.4% | viability, T/C [28]: 18.9% | viability, T/C [29]: 17.8% | viability, T/C [30]: 18.9% | viability, T/C [31]: 25.6% | viability, T/C [32]: 22.8% | viability, T/C [33]: 21.6% | viability, T/C [34]: 21.2% | viability, T/C [35]: 19.7% | viability, T/C [36]: 18.2% | viability, T/C [37]: 26.7% | viability, T/C [38]: 23% | viability, T/C [39]: 24.2% | viability, T/C [40]: 21.1% | viability, T/C [41]: 22% | viability, T/C [42]: 15.8%

C#Cc1c(F)ccc2cc(O)cc(-c3ncc4c(N5CC6CCC(C5)N6)nc(OCC56CCCN5CC(F)C6)nc4c3F)c12 (configuration not stated)
viability, T/C (compound 0.0316 µM): 101% and 111% | viability, T/C (compound 0.1 µM): 91.2% and 95.5% | viability, T/C (compound 0.316 µM): 106% and 98.5% | viability, T/C (compound 1 µM): 81.5% and 86.9% | viability, T/C (compound 3.16 µM): 63.2% and 75.6% | viability, T/C (compound 10 µM): 48.4% and 55.3% | IC50 (curve of compound): 9340 nM and > 10000 nM

COc1c(OCCCN2CCOCC2)ccc2c3n(c(=NC(=O)c4cnc(N)nc4)nc12)CCN3 + CNC(=O)c1ccc(Nc2nc(OC3CCCC3)c3c(-c4ccc5nc(C)oc5c4)c[nH]c3n2)c(OC)c1
IC50 [1]: 90.7 nM | IC50 [2]: 62.2 nM | IC50 [3]: 16.3 nM | IC50 [4]: < 3.16 nM | IC50 [5]: < 3.16 nM | IC50 [6]: < 3.16 nM | viability, T/C (second compound 0.0316 µM, first compound 0.00316 µM): 107% | viability, T/C (second compound 0.0316 µM, first compound 0.01 µM): 82% | viability, T/C [7]: 66.8% | viability, T/C [8]: 48.4% | viability, T/C [9]: 34.1% | viability, T/C [10]: 22.2% | viability, T/C (second compound 0.1 µM, first compound 0.00316 µM): 89.8% | viability, T/C (second compound 0.1 µM, first compound 0.01 µM): 84.6% | viability, T/C [13]: 58.8% | viability, T/C [14]: 42% | viability, T/C [15]: 31.2% | viability, T/C [16]: 21.1% | viability, T/C (second compound 0.316 µM, first compound 0.00316 µM): 64.5% | viability, T/C (second compound 0.316 µM, first compound 0.01 µM): 56.7% | viability, T/C [19]: 42.4% | viability, T/C [20]: 31.7% | viability, T/C [21]: 27.7% | viability, T/C [22]: 16.4% | viability, T/C (second compound 1 µM, first compound 0.00316 µM): 45.5% | viability, T/C (second compound 1 µM, first compound 0.01 µM): 38.8% | viability, T/C [25]: 31.8% | viability, T/C [26]: 24.5% | viability, T/C [27]: 21.4% | viability, T/C [28]: 15.2% | viability, T/C (second compound 3.16 µM, first compound 0.00316 µM): 37.5% | viability, T/C (second compound 3.16 µM, first compound 0.01 µM): 28.3% | viability, T/C [31]: 23.3% | viability, T/C [32]: 19.4% | viability, T/C [33]: 15.8% | viability, T/C [34]: 13.7% | viability, T/C (second compound 10 µM, first compound 0.00316 µM): 44.8% | viability, T/C (second compound 10 µM, first compound 0.01 µM): 32.7% | viability, T/C [37]: 26.4% | viability, T/C [38]: 19.8% | viability, T/C [39]: 17.1% | viability, T/C [40]: 13.5%
